Measurements from publication PMC8443859 (Journal of Traditional and Complementary Medicine, 2021).
*1 amine or outer side, *2 acyl side, *3 side chain or, on linkers, in order; H or OH if unused. Where a SMILES comes first, the peptide text is derived from it. Bridges are numbered along the chain shown (N, C = ends). Roman numbers before positions name the chains, in order. [ ]: non-standard residue; d: D form. Actinocin(9to1) = Cc1c2oc3c(C)ccc(C(=O)[*:1])c3nc-2c(C(=O)[*:2])c(N)c1=O; NMeV = CN[C@H](C(=O)O)C(C)C; Sar = CNCC(=O)O

What was measured:
measles virus = conditions: Vero cells; cited from earlier work
293T cells = assay: Cell viability, MTT assay; type: cell-based; conditions: Homo sapiens, HEK-293T, 48 h, read-out: IC50 cell viability
[1] = system: lentivirus particles pseudotyped (Vpp) with SARS-CoV-2 Spike protein; assay: organism not typed; type: cell-based; conditions: for inhibition at 10 µM: HEK-293T, read-out: inhibition of SARS-CoV-2 viral infection efficacy
[2] = target: S1 domain of SARS-CoV-2 spike protein (Severe acute respiratory syndrome coronavirus 2, UniProt P0DTC2); assay: biochemical; type: binding
adenovirus = conditions: 293 cells; cited from earlier work
[3] = annotation, ref TDEC website; cited from earlier work
[4] = system: interaction between viral spike protein and ACE2 protein; conditions: cited from earlier work

Row | SMILES | inhibition of measles virus replication and RNA synthesis (measles virus) | IC50 (293T cells) | inhibition at 10 µM [1] | -TΔS [2] | c (c value) [2] | n (reaction stoichiometry) [2] | ΔH [2] | Kd [2] | ΔG [2] | ΔS [2] | inhibition of adenovirus infection (adenovirus) | inhibition of SARS-CoV-2 viral infection efficacy ([1]; 10 µM) | Water solubility, Solubility category [3] | inhibitory activity against spike-ACE2 interaction [4]
1 | Cc1c2oc3c(C)ccc(C(=O)N[C@@H]4C(=O)N[C@H](C(C)C)C(=O)N5CCC[C@H]5C(=O)N(C)CC(=O)N(C)[C@@H](C(C)C)C(=O)O[C@@H]4C)c3nc-2c(C(=O)N[C@@H]2C(=O)N[C@H](C(C)C)C(=O)N3CCC[C@H]3C(=O)N(C)CC(=O)N(C)[C@@H](C(C)C)C(=O)O[C@@H]2C)c(N)c1=O [Actinomycin D] (I: T[dV]P[Sar][NMeV] / II: T[dV]P[Sar][NMeV]; ester I:1-I:C, II:1-II:C; linker I:N-II:N via Actinocin(9to1)) | inhibit measles virus replication and RNA synthesis |  |  |  |  |  |  |  |  |  |  |  |  | 
2 | O=c1cc(-c2ccc(O)c(-c3c(O)cc(O)c4c(=O)cc(-c5ccc(O)cc5)oc34)c2)oc2cc(O)cc(O)c12 [Amentoflavone] |  | > 100000 nM | 50 to 90% | 12.3 kcal/mol | 6.4 | 2.731 | -19.63 kcal/mol | 4270 nM |  |  |  |  |  | 
3 | O=C1/C(=c2\c3ccccc3n3c(=O)c4ccccc4nc23)Nc2ccccc21 [Candidine] |  |  |  | 17.35 kcal/mol |  | 0.115 | -23.9 kcal/mol | 15700 nM | -6.554 kcal/mol | −243.4 J/mol·K |  |  |  | 
4 | CC1=C(O)C(=O)C=C2C1=CC=C1[C@@]2(C)CC[C@@]2(C)[C@@H]3C[C@](C)(C(=O)O)CC[C@]3(C)CC[C@]12C [Celastrol] |  | 987 nM | 50 to 90% | -47.59 kcal/mol | 8.2 | 1.409 | 39.72 kcal/mol | 1710 nM | -7.868 kcal/mol | 667.9 J/mol·K |  |  |  | 
5 | O=C1C(C2(C3(C4=Nc5ccccc5C4=O)Nc4ccccc4C3=O)Nc3ccccc3C2=O)=Nc2ccccc21 (stereo not shown) [Cephalinone D] |  |  |  | -2.383 kcal/mol | 0.8 | 0.333 |  |  |  | 33.45 J/mol·K |  |  |  | 
6 | C[C@@H]1CC[C@@]2(OC1)O[C@H]1C[C@H]3[C@@H]4CC=C5C[C@@H](O[C@@H]6O[C@H](CO)[C@@H](O[C@@H]7O[C@@H](C)[C@H](O)[C@@H](O)[C@H]7O)[C@H](O)[C@H]6O[C@@H]6O[C@@H](C)[C@H](O)[C@@H](O)[C@H]6O)CC[C@]5(C)[C@H]4CC[C@]3(C)[C@H]1[C@@H]2C [Dioscin] |  | 1560 nM |  |  | 117.3 | 5.488 |  | 468 nM | -8.635 kcal/mol | 110.6 J/mol·K | inhibit the initial stage of adenovirus infection | more than 80% | Moderate | 
7 | CC1(C)[C@@H](O[C@H]2O[C@H](C(=O)O)[C@@H](O)[C@H](O)[C@H]2O[C@@H]2O[C@H](C(=O)O)[C@@H](O)[C@H](O)[C@H]2O)CC[C@]2(C)[C@H]3C(=O)C=C4[C@@H]5C[C@@](C)(C(=O)O)CC[C@]5(C)CC[C@@]4(C)[C@]3(C)CC[C@@H]12 [Glycyrrhizic acid] |  |  |  |  |  |  |  |  |  |  |  |  |  | inhibitory activity against the interaction between viral spike protein and ACE2 protein
